Source: patent US9334264B2, “NAMPT inhibitors” (AbbVie Inc., priority 2012, dated 2016)

Key:
[1] = target: NAMPT (human, recombinant, C-terminally His-tagged) (Homo sapiens, UniProt P43490); assay: Time-Resolved Fluorescence Resonance Energy Transfer (TR-FRET) Binding Assay of NAMPT; settings: absence of substrates; 6.8 nM NAMPT, 200 nM probe, equilibrated 3 hours
Procedure, shortened: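 Compounds (typically 11 half-log dilutions, 2% DMSO final) equilibrated 3 h at room temperature with 6.8 nM human C-His NAMPT, 1 nM Tb-anti-His antibody and 200 nM fluorescent competitive probe in pH 7.5 HEPES buffer. IC50 derived by logistic fit of normalized TR-FRET ratio (520/495 nm).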

[2] = target: NAMPT (Homo sapiens, UniProt P43490); assay: Time-Resolved Fluorescence Resonance Energy Transfer (TR-FRET) Binding Assay of NAMPT with PRPP; settings: 200 μM PRPP and 2.5 mM ATP; 2 nM NAMPT, 2 nM probe, equilibrated 16 hours
Sequence of NAMPT (P43490 whole entry): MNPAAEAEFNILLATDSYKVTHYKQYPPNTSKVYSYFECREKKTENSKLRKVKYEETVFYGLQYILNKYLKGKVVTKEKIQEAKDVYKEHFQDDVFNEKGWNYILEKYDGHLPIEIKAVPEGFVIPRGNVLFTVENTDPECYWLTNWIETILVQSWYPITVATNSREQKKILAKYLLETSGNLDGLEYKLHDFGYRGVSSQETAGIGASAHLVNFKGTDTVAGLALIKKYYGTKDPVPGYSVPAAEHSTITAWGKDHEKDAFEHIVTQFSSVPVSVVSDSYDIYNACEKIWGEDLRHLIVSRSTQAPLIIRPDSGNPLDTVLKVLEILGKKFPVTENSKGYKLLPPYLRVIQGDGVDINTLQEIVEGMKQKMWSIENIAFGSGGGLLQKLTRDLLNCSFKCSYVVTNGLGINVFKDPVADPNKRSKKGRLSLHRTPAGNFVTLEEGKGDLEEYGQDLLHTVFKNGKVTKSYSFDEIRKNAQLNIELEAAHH
Procedure, shortened: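 Compounds were equilibrated for 16 hours before TR-FRET readout, with substrates present (200 μM PRPP, 2.5 mM ATP) to permit enzymatic modification. Final mix: 2 nM His-tagged NAMPT, 2 nM probe, 1 nM Tb-anti-His antibody, 2% DMSO.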

Sequence of NAMPT (human, recombinant, C-terminally His-tagged) (P43490 whole entry): as above

| SMILES | IC50 [1] | IC50 [2] |
| --- | --- | --- |
| COCCCNC(=O)N(Cc1ccc(C#N)cc1)c1ncc(C(=O)NCCCn2ccnc2)s1 [Example 166, 2-{(4-cyanobenzyl)[(3-methoxypropyl)carbamoyl]amino}-N-[3-(1H-imidazol-1-yl)propyl]-1,3-thiazole-5-carboxamide] | > 10000 nM | 630 nM |
| COCCN(C(=O)Cc1ccc2ccccc2c1)c1ncc(C(=O)NCCCn2ccnc2)s1 [Example 185, N-[3-(1H-imidazol-1-yl)propyl]-2-[(2-methoxyethyl)(naphthalen-2-ylacetyl)amino]-1,3-thiazole-5-carboxamide] | 633 nM | 0.476 nM |
| O=C(NCCCn1ccnc1)c1cnc(N(Cc2ccc(F)cc2)C(=O)C[n+]2ccccc2)s1 [Example 44, 1-{2-[(4-fluorobenzyl)(5-{[3-(1H-imidazol-1-yl)propyl]carbamoyl}-1,3-thiazol-2-yl)amino]-2-oxoethyl}pyridinium] | > 10000 nM | 7.77 nM |
| CC(C)CCN(C(=O)COc1ccccc1)c1ncc(C(=O)NCCCn2ccnc2)s1 [Example 136, N-[3-(1H-imidazol-1-yl)propyl]-2-[(3-methylbutyl)(phenoxyacetyl)amino]-1,3-thiazole-5-carboxamide] | 24.4 nM | 0.174 nM |
| O=C(NCCCn1ccnc1)c1cnc(N(Cc2ccc(F)cc2)C(=O)CN2CCCC(O)C2)s1 (stereo not drawn) [Example 41, 2-{(4-fluorobenzyl)[(3-hydroxypiperidin-1-yl)acetyl]amino}-N-[3-(1H-imidazol-1-yl)propyl]-1,3-thiazole-5-carboxamide] | 8500 nM | 29.7 nM |
| O=C(NCCCn1ccnc1)c1cnc(N(Cc2ccc(F)cc2)C(=O)NC2CCCOC2)s1 (stereo not drawn) [Example 92, 2-[(4-fluorobenzyl)(tetrahydro-2H-pyran-3-ylcarbamoyl)amino]-N-[3-(1H-imidazol-1-yl)propyl]-1,3-thiazole-5-carboxamide] | > 10000 nM | 0.868 nM |
| COCCN(C(=O)CCc1cccnc1)c1ncc(C(=O)NCCCn2ccnc2)s1 [Example 183, N-[3-(1H-imidazol-1-yl)propyl]-2-{(2-methoxyethyl)[3-(pyridin-3-yl)propanoyl]amino}-1,3-thiazole-5-carboxamide] | 2940 nM | 0.281 nM |
| CCN(CC)CCCNC(=O)N(Cc1ccc(C#N)cc1)c1ncc(C(=O)NCCCn2ccnc2)s1 [Example 144, 2-[(4-cyanobenzyl){[3-(diethylamino)propyl]carbamoyl}amino]-N-[3-(1H-imidazol-1-yl)propyl]-1,3-thiazole-5-carboxamide] | > 10000 nM | 33.2 nM |
| N#Cc1ccc(CN(C(=O)NCCC(=O)O)c2ncc(C(=O)NCCCn3ccnc3)s2)cc1 [Example 171, N-[(4-cyanobenzyl)(5-{[3-(1H-imidazol-1-yl)propyl]carbamoyl}-1,3-thiazol-2-yl)carbamoyl]-beta-alanine] | 8790 nM | 32.1 nM |
| CC(C)CCN(Cc1ccc(Cl)cc1)c1ncc(C(=O)NCCCn2ccnc2)s1 [Example 59, 2-[(4-chlorobenzyl)(3-methylbutyl)amino]-N-[3-(1H-imidazol-1-yl)propyl]-1,3-thiazole-5-carboxamide] | > 10000 nM | 266 nM |
| O=C(NCCCn1ccnc1)c1cnc(N(Cc2ccc(F)cc2)C(=O)CN2CCC(O)CC2)s1 [Example 29, 2-{(4-fluorobenzyl)[(4-hydroxypiperidin-1-yl)acetyl]amino}-N-[3-(1H-imidazol-1-yl)propyl]-1,3-thiazole-5-carboxamide] | > 10000 nM | 2.16 nM |
| O=C(NCCCn1ccnc1)c1cnc(N(Cc2ccc(F)cc2)C(=O)NCC2CCCO2)s1 (stereo not drawn) [Example 79, 2-{(4-fluorobenzyl)[(tetrahydrofuran-2-ylmethyl)carbamoyl]amino}-N-[3-(1H-imidazol-1-yl)propyl]-1,3-thiazole-5-carboxamide] | 6580 nM | 2.77 nM |
| O=C(NCCCn1ccnc1)c1cnc(N(Cc2ccc(F)cc2)C(=O)CN2CCC3(C2)OCCO3)s1 [Example 43, 2-[(1,4-dioxa-7-azaspiro[4.4]non-7-ylacetyl)(4-fluorobenzyl)amino]-N-[3-(1H-imidazol-1-yl)propyl]-1,3-thiazole-5-carboxamide] | 8110 nM | 0.709 nM |
| COCCC(=O)N(CCc1ccc(Cl)cn1)c1ncc(C(=O)NCCCn2ccnc2)s1 [Example 207, 2-{[2-(5-chloropyridin-2-yl)ethyl](3-methoxypropanoyl)amino}-N-[3-(1H-imidazol-1-yl)propyl]-1,3-thiazole-5-carboxamide] | 3860 nM | 0.331 nM |
| CC(C)CCN(Cc1cccc(F)c1)c1ncc(C(=O)NCCCn2ccnc2)s1 [Example 56, 2-[(3-fluorobenzyl)(3-methylbutyl)amino]-N-[3-(1H-imidazol-1-yl)propyl]-1,3-thiazole-5-carboxamide] | 6070 nM | 0.719 nM |
| CC(C)CCN(C(=O)CC1CCCO1)c1ncc(C(=O)NCCCn2ccnc2)s1 (stereo not drawn) [Example 173, N-[3-(1H-imidazol-1-yl)propyl]-2-[(3-methylbutyl)(tetrahydrofuran-2-ylacetyl)amino]-1,3-thiazole-5-carboxamide] | 707 nM | 2.33 nM |
| O=C(NCCCn1ccnc1)c1cnc(N2CCN(CCO)C2=O)s1 [Example 203, 2-[3-(2-hydroxyethyl)-2-oxoimidazolidin-1-yl]-N-[3-(1H-imidazol-1-yl)propyl]-1,3-thiazole-5-carboxamide] | > 10000 nM | 13.6 nM |
| O=C(NCCCn1ccnc1)c1cnc(N(Cc2ccc(Cl)cn2)C(=O)C2CCOCC2)s1 [Example 205, 2-{[(5-chloropyridin-2-yl)methyl](tetrahydro-2H-pyran-4-ylcarbonyl)amino}-N-[3-(1H-imidazol-1-yl)propyl]-1,3-thiazole-5-carboxamide] | 739 nM | 0.177 nM |
| COCCN(C(=O)Cc1ccccn1)c1ncc(C(=O)NCCCn2ccnc2)s1 [Example 213, N-[3-(1H-imidazol-1-yl)propyl]-2-[(2-methoxyethyl)(pyridin-2-ylacetyl)amino]-1,3-thiazole-5-carboxamide] | 9860 nM | 0.411 nM |
| Cc1cc(C(=O)N(CCC(C)C)c2ncc(C(=O)NCCCn3ccnc3)s2)no1 [Example 135, N-(5-{[3-(1H-imidazol-1-yl)propyl]carbamoyl}-1,3-thiazol-2-yl)-5-methyl-N-(3-methylbutyl)-1,2-oxazole-3-carboxamide] | 93.7 nM | 0.169 nM |
| COCCC(=O)N(Cc1ccc(Cl)cc1)c1ncc(C(=O)NCCCn2ccnc2)s1 [Example 114, 2-[(4-chlorobenzyl)(3-methoxypropanoyl)amino]-N-[3-(1H-imidazol-1-yl)propyl]-1,3-thiazole-5-carboxamide] | 1990 nM | 2.31 nM |
| CCN(CCOC)C(=O)N(Cc1ccc(F)cc1)c1ncc(C(=O)NCCCn2ccnc2)s1 [Example 71, 2-{[ethyl(2-methoxyethyl)carbamoyl](4-fluorobenzyl)amino}-N-[3-(1H-imidazol-1-yl)propyl]-1,3-thiazole-5-carboxamide] | 533 nM | 0.7 nM |
| COCCC(=O)N(CCc1ccc2c(c1)OCO2)c1ncc(C(=O)NCCCn2ccnc2)s1 [Example 102, 2-{[2-(1,3-benzodioxol-5-yl)ethyl](3-methoxypropanoyl)amino}-N-[3-(1H-imidazol-1-yl)propyl]-1,3-thiazole-5-carboxamide acetate (1:1)] | 306 nM | 2.16 nM |
| CC(=O)NCC(C)CNC(=O)N(Cc1ccc(C#N)cc1)c1ncc(C(=O)NCCCn2ccnc2)s1 (stereo not drawn) [Example 141, 2-[{[3-(acetylamino)-2-methylpropyl]carbamoyl}(4-cyanobenzyl)amino]-N-[3-(1H-imidazol-1-yl)propyl]-1,3-thiazole-5-carboxamide] | > 10000 nM | 23.1 nM |
| COCCC(=O)N(CCOC(C)C)c1ncc(C(=O)NCCCn2ccnc2)s1 [Example 179, N-[3-(1H-imidazol-1-yl)propyl]-2-{(3-methoxypropanoyl)[2-(propan-2-yloxy)ethyl]amino}-1,3-thiazole-5-carboxamide] | 9800 nM | 0.492 nM |
| COCCC(=O)N(Cc1ccc(C#N)cc1)c1ncc(C(=O)NCCCn2ccnc2)s1 [Example 62, 2-[(4-cyanobenzyl)(3-methoxypropanoyl)amino]-N-[3-(1H-imidazol-1-yl)propyl]-1,3-thiazole-5-carboxamide] | 810 nM | 1.08 nM |
| COCCC(=O)N(CCCN1CCCC1)c1ncc(C(=O)NCCCn2ccnc2)s1 [Example 192, N-[3-(1H-imidazol-1-yl)propyl]-2-{(3-methoxypropanoyl)[3-(pyrrolidin-1-yl)propyl]amino}-1,3-thiazole-5-carboxamide] | > 10000 nM | 0.262 nM |
| CC(C)C(=O)NCCNC(=O)N(Cc1ccc(C#N)cc1)c1ncc(C(=O)NCCCn2ccnc2)s1 [Example 147, 2-[(4-cyanobenzyl)({2-[(2-methylpropanoyl)amino]ethyl}carbamoyl)amino]-N-[3-(1H-imidazol-1-yl)propyl]-1,3-thiazole-5-carboxamide] | > 10000 nM | 71.9 nM |
| CCC(COC)NC(=O)N(Cc1ccc(F)cc1)c1ncc(C(=O)NCCCn2ccnc2)s1 (stereo not drawn) [Example 84, 2-{(4-fluorobenzyl)[(1-methoxybutan-2-yl)carbamoyl]amino}-N-[3-(1H-imidazol-1-yl)propyl]-1,3-thiazole-5-carboxamide] | 3200 nM | 1.72 nM |
| O=C(NCCCn1ccnc1)c1cnc(N(Cc2ccc(F)cc2)C(=O)CN2CC=CCC2)s1 [Example 27, 2-[(3,6-dihydropyridin-1(2H)-ylacetyl)(4-fluorobenzyl)amino]-N-[3-(1H-imidazol-1-yl)propyl]-1,3-thiazole-5-carboxamide] | > 10000 nM | 0.632 nM |
